Where two headings read alike, the source gives them in different places.

For test [1], the target named is muscarinic receptor. Also noted: method as in PMID 11834244. As to conditions: cited from earlier work.
Test [2] deals with noradrenaline transporter. As to conditions: read-out: Ki noradrenaline transport, previously published; cited from earlier work.
For test [3], the system named is dopamine transporter. Also on record: method as in PMID 10525084. As to conditions: read-out: dopamine transport inhibition, previously published; cited from earlier work.
Test [4] addresses muscarinic acetylcholine receptor. The format is binding, rat. The settings on record: rat brain membranes, 1.35 nM [3H] QNB.
For test [5], the system named is MDA-MB-468 cells. The settings on record: cited from earlier work.
Test [6] relates to MDA-MB-468 cells. As to conditions: cited from earlier work. This is another data set of the same source.

Take `CC(C)=CCN1CC[C@]2(C)c3cc(O)ccc3C[C@H]1[C@H]2C` [(+) pentazocine]: in test [1], the pKi muscarinic receptor is listed as 6.29 ± 0.06.

A word on the Ki: it is a dissociation constant, usually derived from enzyme kinetics or from competition with a known ligand. Regarding `CNCCCN1c2ccccc2CCc2ccccc21` [Desipramine, desipramine], in test [2], the Ki is 0.0043 µM.

Regarding `c1ccc(CCCN2CCN(CCOC(c3ccccc3)c3ccccc3)CC2)cc1` [GBR-12935], the IC50 in test [3] is […].

Broadly, the EC50 is the midpoint of the concentration-response curve. For the compound `N=C(Nc1ccc(I)cc1)NC1C2CC3CC(C2)CC1C3` (centres unmarked) [IPAG, 1-(4-iodophenyl)-3-(2-adamantyl)guanidine], the “mACh R affinity pKi ± SEM (n)” value in test [4] was found to be 4.3. Moreover, the pEC50 calcium signalling in test [5] was 3.9. Besides, the values for the EC50 in test [5] (read-out: EC50 calcium signalling) and in test [6] (read-out: EC50 reduction of cellular metabolic activity) were 123 µM and 24 µM, respectively. For the same compound, the “pEC50 reduction of cellular metabolic activity” value in test [6] was 4.6.
